{"source": "patent US4176189A", "about": "“Insecticidal and acaricidal hydantoin N-methylol esters” (Sumitomo Chemical Company, Limited, priority 1977, dated 1979)", "type_in_all_cases": "in vivo", "key": {"[1]": {"tested_on": "Carmine mite (Tetranychus cinnabarinus)", "experiment": "Carmine mite on potted kidney bean, damage after 10 days (Experimental Example 12)", "details": "200-fold aqueous dilution of emulsifiable concentrate of Preparation example 3, 10 ml/pot", "procedure": "Carmine mite female adults (Tetranychus cinnabarinus) were made parasitic on leaves of the potted kidney bean (primordial leaf stage) which had elapsed 9 days after sowing, at a rate of 10-15/leaf, and bred at 27° C. for a week in a constant temperature room. […] At this time, a 200-fold aqueous dilute solution of each of the emulsifiable concentrates formulated from the present compounds (2), (6), (8), (9) and (13) according to Preparation example 3 was sprayed at a rate of 10 ml/pot by means of a turn table."}, "[2]": {"tested_on": "housefly adults (Musca domestica)", "experiment": "Oil spray in (70 cm)^3 glass chamber, housefly adults, KT50 and mortality (Experimental Example 2)", "details": "for mortality at 0.1 %: Musca domestica", "procedure": "(§1) 0.1 Part of each of the present compounds was dissolved in kerosene and made up to 100 parts with kerosene. Thus, the oil spray of each compound was obtained. Ten northern house mosquito female adults (Culex pipiens pallens) and 10 housefly adults (Musca domestica) were liberated in a (70 cm)^3 glass chamber. 0.7 ml of the oil spray was applied and the number of knocked down insects was counted with the lapse of time. The value of KT50 was obtained from the mean knock-down ratio of three replications according to Finney's graphic method. After 10 minutes, the knocked down insects were collected and transferred to a recovery container and fed with a 5% sugar solution. After 24 hours, the dead and alive were examined."}, "[3]": {"tested_on": "adult German cockroaches (Blattella germanica)", "experiment": "Flushing out of German cockroaches from shelter (Experimental Example 8)", "details": "0.7 ml of 0.1% oil spray", "procedure": "Ten adult German cockroaches (Blattella germanica) were liberated in a plywood-made trigonal prism like shelter with diet and water. The shelter containing cockroaches was made stand opening upward in a glass chamber (70 cm)^3, and 0.7 ml of 0.1% oil spray of each compound was applied to the chamber. The number of flushed out insects was counted with the lapse of time."}, "[4]": {"tested_on": "housefly female adults (Musca domestica)", "experiment": "Housefly female adults on treated filter paper in polyethylene cup, mortality after 48 hours (Experimental Example 1)", "procedure": "Ten percent emulsifiable concentrates were prepared as in the Preparation example 3.\nAt the bottom of a polyethylene cup of 5.5 cm in diameter was placed a filter paper of the same size. 0.75 Ml of a 200-fold aqueous dilute solution of each emulsifiable concentrate (corresponding to 500 ppm) was dropped on the filter paper, and 30 mg of sucrose as a food was uniformly placed. Ten housefly female adults (Musca domestica) were liberated in the cup which was then covered with a lid. After 48 hours, the dead and alive were examined to obtain mortality (4 replications)."}, "[5]": {"tested_on": "northern house mosquito female adults (Culex pipiens pallens)", "experiment": "Oil spray in (70 cm)^3 glass chamber, northern house mosquito female adults, KT50 and mortality (Experimental Example 2)", "details": "for mortality at 0.1 %: Culex pipiens", "procedure": "as §1"}, "[6]": {"tested_on": "northern house mosquito female adults (Culex pipiens pallens)", "experiment": "Oil spray in (70 cm)^3 glass chamber, knock down of mosquitoes at 10 minutes (Experimental Example 3)", "details": "oil sprays of Preparation example 1 (0.2 part in 100), 0.7 ml, 10 minutes after spraying, read-out: KD%", "excerpt": "Ten northern house mosquito female adults (Culex pipiens pallens) were liberated in a (70 cm)^3 glass chamber."}, "[7]": {"details": "housefly adult, 0.1% oil spray, 0.7 ml"}, "[8]": {"details": "200-fold aqueous dilution of emulsifiable concentrate (500 ppm), 48 hours, housefly female adults, read-out: Mortality"}, "[9]": {"details": "northern house mosquito female adult, 0.1% oil spray, 0.7 ml"}}, "note": "Where two headings read alike, the source gives them in different places."}
{"smiles": "C#CCN1CC(=O)N(COC(=O)C2C(C)(C)C2(C)C)C1=O", "note": "[Present compound (9), 1-Propargyl-3-hydantoinylmethyl 2,2,3,3-tetramethylcyclopropanecarboxylate]", "values": [{"measurement": "damage of kidney bean by the mites", "setting": "[1]", "result": "hardly any damage was observed"}, {"measurement": "mortality at 0.1 %", "setting": "[2]; housefly adult, 0.1% oil spray, 0.7 ml, after 24 hours, read-out: Mortality", "result": 20, "unit": "%"}, {"measurement": "KT50", "setting": "[2]; [7]", "result": 150, "unit": "s"}, {"measurement": "Flushing out", "setting": "[3]; 38\"", "result": 15, "unit": "%"}, {"measurement": "Flushing out", "setting": "[3]; 75\"", "result": 55, "unit": "%"}, {"measurement": "Flushing out", "setting": "[3]; 150\"", "result": 60, "unit": "%"}, {"measurement": "Flushing out", "setting": "[3]; 300\"", "result": 70, "unit": "%"}, {"measurement": "Flushing out", "setting": "[3]; 600\"", "result": 80, "unit": "%"}, {"measurement": "mortality at 500 µg/mL", "setting": "[4]; [8]", "result": 100, "unit": "%"}, {"measurement": "mortality at 0.1 %", "setting": "[5]; northern house mosquito female adult, 0.1% oil spray, 0.7 ml, after 24 hours, read-out: Mortality", "result": 95, "unit": "%"}, {"measurement": "KT50", "setting": "[5]; [9]", "result": 35, "unit": "s"}]}
{"smiles": "C#CCN1CC(=O)N(COC(=O)C(c2ccc(Cl)cc2)C(C)C)C1=O", "note": "(stereo not drawn) [Present compound (13), 1-Propargyl-3-hydantoinylmethyl α-(4-chlorophenyl)isovalerate]", "values": [{"measurement": "damage of kidney bean by the mites", "setting": "[1]", "result": "hardly any damage was observed"}, {"measurement": "mortality at 500 µg/mL", "setting": "[4]; [8]", "result": 100, "unit": "%"}, {"measurement": "pest or weed control at 0.2 %", "setting": "[6]", "result": 90, "unit": "%"}]}
{"smiles": "C#CCN1CC(=O)N(COC(=O)[C@@H]2[C@@H](C=C3CCCC3)C2(C)C)C1=O", "note": "(relative stereo) [Present compound (8), 1-Propargyl-3-hydantoinylmethyl 2,2-dimethyl-3-cyclopentylidenemethylcyclopropanecarboxylate]", "values": [{"measurement": "damage of kidney bean by the mites", "setting": "[1]", "result": "hardly any damage was observed"}, {"measurement": "mortality at 0.1 %", "setting": "[2]; 24 h", "result": 25, "unit": "%"}, {"measurement": "KT50", "setting": "[2]; [7]", "result": 150, "unit": "s"}, {"measurement": "mortality at 500 µg/mL", "setting": "[4]; 48 h", "result": 100, "unit": "%"}, {"measurement": "mortality at 0.1 %", "setting": "[5]; 24 h", "result": 95, "unit": "%"}, {"measurement": "KT50", "setting": "[5]; [9]", "result": 75, "unit": "s"}]}
{"smiles": "C#CCN1CC(=O)N(COC(=O)[C@@H]2[C@@H](C=C(F)F)C2(C)C)C1=O", "note": "[Present compound (6)]", "values": [{"measurement": "damage of kidney bean by the mites", "setting": "[1]", "result": "hardly any damage was observed"}, {"measurement": "mortality at 0.1 %", "setting": "[2]; 24 h", "result": 70, "unit": "%"}, {"measurement": "KT50", "setting": "[2]; [7]", "result": 46, "unit": "s"}, {"measurement": "Flushing out", "setting": "[3]; 38\"", "result": 47, "unit": "%"}, {"measurement": "Flushing out", "setting": "[3]; 75\"", "result": 74, "unit": "%"}, {"measurement": "Flushing out", "setting": "[3]; 150\"", "result": 79, "unit": "%"}, {"measurement": "Flushing out", "setting": "[3]; 300\"", "result": 79, "unit": "%"}, {"measurement": "Flushing out", "setting": "[3]; 600\"", "result": 100, "unit": "%"}, {"measurement": "mortality at 500 µg/mL", "setting": "[4]; 48 h", "result": 100, "unit": "%"}, {"measurement": "mortality at 0.1 %", "setting": "[5]; 24 h", "result": 100, "unit": "%"}, {"measurement": "KT50", "setting": "[5]; [9]", "result": 19, "unit": "s"}]}
{"smiles": "C=CCN1CC(=O)N(COC(=O)C2C(C=C(Cl)Cl)C2(C)C)C1=O", "note": "(stereo not shown) [Present compound (2), 1-Allyl-3-hydantoinylmethyl 2,2-dimethyl-3-(2,2-dichlorovinyl)-cyclopropanecarboxylate]", "values": [{"measurement": "damage of kidney bean by the mites", "setting": "[1]", "result": "hardly any damage was observed"}, {"measurement": "mortality at 500 µg/mL", "setting": "[4]; 48 h", "result": 100, "unit": "%"}, {"measurement": "pest or weed control at 0.2 %", "setting": "[6]", "result": 100, "unit": "%"}]}
